Patent publication US11497212B2, “Substituted thiophenyl uracils, salts thereof and the use thereof as herbicidal agents” (Syngenta Crop Protection AG, priority 2017, dated 2022)

Key:
Format in all cases: in vivo
Triticum aestivum = experiment: Crop compatibility post-emergence (greenhouse pot trial)
Experimental: (§1) Seeds of mono- and dicotyledonous weed plants and crop plants are laid out in sandy loam soil in plastic or wood-fiber pots, covered with earth and grown under controlled growth conditions in a greenhouse. 2 to 3 weeks after sowing, the trial plants are treated at the one-leaf stage. The compounds of the invention formulated in the form of wettable powders (WP) or emulsion concentrates (EC) were then sprayed onto the green parts of the plant as an aqueous suspension or emulsion with addition of 0.5% additive at a water application rate equivalent to 600 L/ha. After the trial plants had stood for about 3 weeks in the greenhouse, under optimal growth conditions, the effect of the preparations was scored visually by comparison with untreated controls. For example, 100% efficacy=plants have died, 0% efficacy=like control plants.
(§2) Crop plant compatibilities were also scored correspondingly.
(§3) The effects observed are reported here on selected crop plants by comparison with the untreated controls (values in %).

Oryza sativa = experiment: as above; settings: application rate 20 g/ha
Experimental: as §1, §2, §3

Pharbitis purpurea = experiment: Herbicidal action post-emergence (greenhouse pot trial); settings: application rate 20 g/ha
Experimental: as §1, with “plants. Tables A1 to A15 below show the efficacies of selected compounds of the general formula (I) according to tables I.1 to I.60 on various harmful plants and an application rate corresponding to 80 g/ha or lower that were obtained by the aforementioned trial method.” for “plants.”

Amaranthus retroflexus = experiment: as above; settings: application rate 20 g/ha, scored visually after about 3 weeks vs untreated controls
Experimental: as §1, with “plants. Tables A1 to A15 below show the efficacies of selected compounds of the general formula (I) according to tables I.1 to I.60 on various harmful plants and an application rate corresponding to 80 g/ha or lower that were obtained by the aforementioned trial method.” for “plants.”

Viola tricolor = experiment: as above; settings: application rate 20 g/ha
Experimental: as §1, with “plants. Tables A1 to A15 below show the efficacies of selected compounds of the general formula (I) according to tables I.1 to I.60 on various harmful plants and an application rate corresponding to 80 g/ha or lower that were obtained by the aforementioned trial method.” for “plants.”

Veronica persica = experiment: as above; settings: application rate 20 g/ha
Experimental: as §1, with “plants. Tables A1 to A15 below show the efficacies of selected compounds of the general formula (I) according to tables I.1 to I.60 on various harmful plants and an application rate corresponding to 80 g/ha or lower that were obtained by the aforementioned trial method.” for “plants.”

Abutilon theophrasti = experiment: as above; settings: application rate 20 g/ha, scored visually after about 3 weeks vs untreated controls
Experimental: as §1, with “plants. Tables A1 to A15 below show the efficacies of selected compounds of the general formula (I) according to tables I.1 to I.60 on various harmful plants and an application rate corresponding to 80 g/ha or lower that were obtained by the aforementioned trial method.” for “plants.”

Polygonum convolvulus = experiment: as above; settings: application rate 20 g/ha, scored visually after about 3 weeks vs untreated controls
Experimental: as §1, with “plants. Tables A1 to A15 below show the efficacies of selected compounds of the general formula (I) according to tables I.1 to I.60 on various harmful plants and an application rate corresponding to 80 g/ha or lower that were obtained by the aforementioned trial method.” for “plants.”

Stellaria media = experiment: as above; settings: application rate 20 g/ha, scored visually after about 3 weeks vs untreated controls
Experimental: as §1, with “plants. Tables A1 to A15 below show the efficacies of selected compounds of the general formula (I) according to tables I.1 to I.60 on various harmful plants and an application rate corresponding to 80 g/ha or lower that were obtained by the aforementioned trial method.” for “plants.”

Matricaria inodora = experiment: as above; settings: application rate 20 g/ha, scored visually after about 3 weeks vs untreated controls
Experimental: as §1, with “plants. Tables A1 to A15 below show the efficacies of selected compounds of the general formula (I) according to tables I.1 to I.60 on various harmful plants and an application rate corresponding to 80 g/ha or lower that were obtained by the aforementioned trial method.” for “plants.”

Triticum aestivum (Efficacy in %) (Triticum aestivum; application rate 20 g/ha) | Oryza sativa (Efficacy in %) (Oryza sativa) | Triticum aestivum (Efficacy in %) (Triticum aestivum; application rate 5 g/ha) | SMILES | Pharbitis purpurea (Efficacy in %) (Pharbitis purpurea) | Amaranthus retroflexus (Efficacy in %) (Amaranthus retroflexus) | Viola tricolor (Efficacy in %) (Viola tricolor) | Veronica persica (Efficacy in %) (Veronica persica) | Abutilon theophrasti (Efficacy in %) (Abutilon theophrasti) | Polygonum convolvulus (Efficacy in %) (Polygonum convolvulus) | Stellaria media (Efficacy in %) (Stellaria media) | Matricaria inodora (Efficacy in %) (Matricaria inodora)
20% | 0% | – | CC(Sc1cc(-n2c(=O)cc(C(F)(F)F)n(C)c2=O)c(F)cc1Cl)C(=O)NCCCOCc1ccccc1 (stereo not shown) [I.1-180] | 100% | 100% | 100% | 100% | 100% | 100% | 90% | 100%
– | 10% | – | CC(Sc1cc(-n2c(=O)cc(C(F)(F)F)n(C)c2=O)c(F)cc1Cl)C(=O)NCC1COCCO1 (stereo not shown) [I.1-331] | – | 100% | 100% | 100% | 100% | – | 80% | 90%
20% | 10% | – | Cc1c(C(F)(F)F)n(C)c(=O)n(-c2cc(SC(CC(C)C)C(=O)NCC3CCCO3)c(Cl)cc2F)c1=O (stereo not shown) [I.14-221] | 100% | 100% | 100% | 100% | 90% | 80% | – | 80%
0% | 0% | – | CC1CC(COC(=O)C(C)(C)CSc2cc(-n3c(=O)cc(C(F)(F)F)n(C)c3=O)c(F)cc2Cl)CO1 (stereo not shown) [I.48-73] | 100% | 100% | 100% | 100% | 100% | 80% | 100% | 80%
– | – | 0% | Cn1c(C(F)(F)F)cc(=O)n(-c2cc(SCC(C)(C)C(=O)OCC3CCSC3)c(Cl)cc2F)c1=O (stereo not shown) [I.48-82, Tetrahydrothiophen-3-ylmethyl 3-({2-chloro-4-fluoro-5-[3-methyl-2,6-dioxo-4-(trifluoromethyl)-3,6-dihydropyrimidin-1(2H)-yl]phenyl}sulfanyl)-2,2-dimethylpropanoate] | – | 100% | – | – | 100% | 100% | – | –
20% | 10% | – | CC(CC(=O)OCC1CCCO1)Sc1cc(-n2c(=O)cc(C(F)(F)F)n(C)c2=O)c(F)cc1Cl (stereo not shown) [I.49-71] | 100% | 100% | 100% | 100% | 100% | 100% | 100% | 100%
– | 10% | – | CC(CC(=O)OCC1CCOC1)Sc1cc(-n2c(=O)cc(C(F)(F)F)n(C)c2=O)c(F)cc1Cl (stereo not shown) [I.49-72] | – | 100% | 100% | 100% | 100% | – | – | 90%
– | 10% | – | CC(CC(=O)NCC1CCCO1)Sc1cc(-n2c(=O)cc(C(F)(F)F)n(C)c2=O)c(F)cc1Cl (stereo not shown) [I.49-221] | 100% | 100% | – | 100% | 100% | 100% | 90% | 90%
